System: Hepatotoxicity
Settings: not given
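Further: severity score taken from the FDA LTKB benchmark dataset, subset of drugs classed as lower DILI concern.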

First: CCOC(=O)[C@H](CCc1ccccc1)N[C@@H](C)C(=O)N1CCC[C@H]1C(=O)O
Second: C[C@H](CS)C(=O)N1CCC[C@H]1C(=O)O [CAPTOPRIL]
The “LTKB_BD DILI severity score” value of the first is lower: 4 for the first, 6 for the second.

Going from `Nc1nc2c(ncn2COCCO)c(=O)[nH]1` [ACYCLOVIR] to `Nc1nc(O)c2ncn(COC(CO)CO)c2n1` [GANCICLOVIR], the “LTKB_BD DILI severity score” value rises from 5 to 7.

`Oc1ncnc2[nH]ncc12` [ALLOPURINOL] and `CN1C(C(=O)Nc2ccccn2)=C(O)c2ccccc2S1(=O)=O` [PIROXICAM] are the same in “LTKB_BD DILI severity score” value: 3 for the first, 3 for the second.

`CN(C)c1nc(N(C)C)nc(N(C)C)n1` [ALTRETAMINE] and `CN(C)c1ccc(O)c2c1C[C@H]1C[C@H]3[C@H](N(C)C)C(O)=C(C(N)=O)C(=O)[C@@]3(O)C(O)=C1C2=O` [MINOCYCLINE] are the same in “LTKB_BD DILI severity score” value: 2 for the first, 2 for the second.

Going from `NC12CC3CC(CC(C3)C1)C2` [AMANTADINE] to `C[C@]12CC[C@@H]3c4ccc(O)cc4CC[C@H]3[C@@H]1CC[C@@H]2O` [ESTRADIOL], the “LTKB_BD DILI severity score” value falls from 3 to 2.

`CC1(C)S[C@@H]2[C@H](NC(=O)[C@H](N)c3ccc(O)cc3)C(=O)N2[C@H]1C(=O)O` [AMOXICILLIN] and `CC(C)Cc1ccc(C(C)C(=O)O)cc1` (configuration not stated) [IBUPROFEN] are the same in “LTKB_BD DILI severity score” value: 3 for the first, 3 for the second.

Going from `CC(C)NCC(O)COc1ccc(COCCOC(C)C)cc1` (configuration not stated) [BISOPROLOL] to `COCCc1ccc(OCC(O)CNC(C)C)cc1` (configuration not stated) [METOPROLOL], the “LTKB_BD DILI severity score” value rises from 3 to 5.

Going from `CC(NC(C)(C)C)C(=O)c1cccc(Cl)c1` (configuration not stated) [BUPROPION] to `CCOC(=O)C(C)(C)Oc1ccc(Cl)cc1` [CLOFIBRATE], the “LTKB_BD DILI severity score” value falls from 5 to 3.

Compared with `O=C1CC2(CCCC2)CC(=O)N1CCCCN1CCN(c2ncccn2)CC1` [BUSPIRONE], `O=C(CCCN1CCC(O)(c2ccc(Cl)cc2)CC1)c1ccc(F)cc1` [HALOPERIDOL] is higher in “LTKB_BD DILI severity score” value: 3 for the first, 5 for the second.

Going from `O=NN(CCCl)C(=O)NCCCl` [CARMUSTINE] to `O=P1(NCCCl)OCCCN1CCCl` (configuration not stated) [IFOSFAMIDE], the “LTKB_BD DILI severity score” value rises from 3 to 4.

Compared with `CCN(CC)CCCC(C)Nc1ccnc2cc(Cl)ccc12` (configuration not stated) [CHLOROQUINE], `CN(C)CCCN1c2ccccc2Sc2ccc(Cl)cc21` [CHLORPROMAZINE] is lower in “LTKB_BD DILI severity score” value: 3 for the first, 2 for the second.

Going from `CCCNC(=O)NS(=O)(=O)c1ccc(Cl)cc1` [CHLORPROPAMIDE] to `CCC1=C(C)CN(C(=O)NCCc2ccc(S(=O)(=O)NC(=O)N[C@H]3CC[C@H](C)CC3)cc2)C1=O` [GLIMEPIRIDE], the “LTKB_BD DILI severity score” value rises from 2 to 7.

`Clc1ccccc1C(c1ccccc1)(c1ccccc1)n1ccnc1` [CLOTRIMAZOLE] and `CN(C)CCCN1c2ccccc2CCc2ccccc21` [IMIPRAMINE] are the same in “LTKB_BD DILI severity score” value: 3 for the first, 3 for the second.

Compared with `CN1CCN(C2=Nc3cc(Cl)ccc3Nc3ccccc32)CC1` [CLOZAPINE], `O=C(c1ccccc1)c1ccc2n1CCC2C(=O)O` (configuration not stated) [KETOROLAC] is higher in “LTKB_BD DILI severity score” value: 2 for the first, 3 for the second.

Going from `COc1cc2c(c(OC)c1OC)-c1ccc(OC)c(=O)cc1[C@@H](NC(C)=O)CC2` [COLCHICINE] to `COC1=CC(=O)C[C@@H](C)[C@]12Oc1c(Cl)c(OC)cc(OC)c1C2=O` [GRISEOFULVIN], the “LTKB_BD DILI severity score” value falls from 6 to 3.

`O=C([O-])c1cc(=O)c2c(OCC(O)COc3cccc4oc(C(=O)[O-])cc(=O)c34)cccc2o1.[Na+].[Na+]` [CROMOLYN SODIUM] and `CCc1ccc(CCOc2ccc(CC3SC(=O)NC3=O)cc2)nc1` (configuration not stated) [PIOGLITAZONE] are the same in “LTKB_BD DILI severity score” value: 3 for the first, 3 for the second.

Going from `C[C@@H]1C[C@H]2[C@@H]3CCC4=CC(=O)C=C[C@]4(C)[C@@]3(F)[C@@H](O)C[C@]2(C)[C@@]1(O)C(=O)CO` [DEXAMETHASONE] to `CN(C)[C@@H]1C(O)=C(C(N)=O)C(=O)[C@@]2(O)C(O)=C3C(=O)c4c(O)cccc4[C@@](C)(O)[C@H]3[C@H](O)[C@@H]12` [OXYTETRACYCLINE], the “LTKB_BD DILI severity score” value falls from 3 to 2.

`C[C@H]1c2cccc(O)c2C(=O)C2=C(O)[C@]3(O)C(=O)C(C(N)=O)=C(O)[C@@H](N(C)C)[C@@H]3[C@@H](O)[C@@H]21.O` [DOXYCYCLINE] and `COC(=O)C1=C(C)NC(C)=C(C(=O)OC)C1c1ccccc1[N+](=O)[O-]` [NIFEDIPINE] are the same in “LTKB_BD DILI severity score” value: 3 for the first, 3 for the second.

Going from `C=C(CC)C(=O)c1ccc(OCC(=O)O)c(Cl)c1Cl` [ETHACRYNIC ACID] to `Cc1ccc(C)c(OCCCC(C)(C)C(=O)O)c1` [GEMFIBROZIL], the “LTKB_BD DILI severity score” value falls from 5 to 3.

`CC(C)OC(=O)C(C)(C)Oc1ccc(C(=O)c2ccc(Cl)cc2)cc1` [FENOFIBRATE] and `COc1ccc2c(c1)c(CC(=O)O)c(C)n2C(=O)c1ccc(Cl)cc1` [INDOMETHACIN] are the same in “LTKB_BD DILI severity score” value: 3 for the first, 3 for the second.

`CNCCC(Oc1ccc(C(F)(F)F)cc1)c1ccccc1` (configuration not stated) [FLUOXETINE] and `CC(C(=O)O)c1ccc(-c2ccccc2)c(F)c1` (configuration not stated) [FLURBIPROFEN] are the same in “LTKB_BD DILI severity score” value: 3 for the first, 3 for the second.

Going from `O[C@@H]1CO[C@H]2[C@@H]1OC[C@@H]2O` [ISOSORBIDE] to `Fc1ccc([C@@H]2CCNC[C@H]2COc2ccc3c(c2)OCO3)cc1` [PAROXETINE], the “LTKB_BD DILI severity score” value rises from 3 to 8.

Compared with `CC1=C(/C=C/C(C)=C/C=C/C(C)=C\C(=O)O)C(C)(C)CCC1` [ISOTRETINOIN], `CC(C)(O)c1ccccc1CC[C@@H](SCC1(CC(=O)O)CC1)c1cccc(/C=C/c2ccc3ccc(Cl)cc3n2)c1` [MONTELUKAST] is higher in “LTKB_BD DILI severity score” value: 2 for the first, 3 for the second.

`COC(=O)Nc1nc2ccc(C(=O)c3ccccc3)cc2[nH]1` [MEBENDAZOLE] and `CCC1(c2ccccc2)C(=O)NC(=O)NC1=O` [PHENOBARBITAL] are the same in “LTKB_BD DILI severity score” value: 3 for the first, 3 for the second.

First: CNC(=C[N+](=O)[O-])NCCSCc1csc(CN(C)C)n1 [NIZATIDINE]
Second: CCOC(=O)C1=C[C@@H](OC(CC)CC)[C@H](NC(C)=O)[C@@H](N)C1 [OSELTAMIVIR]
The “LTKB_BD DILI severity score” value of the first is higher: 5 for the first, 3 for the second.

In the case of `CC(C)(S)[C@@H](N)C(=O)O` [PENICILLAMINE], the “LTKB_BD DILI severity score” value is reported as 3.

Same assay, conditions: Liver

First: CC(C)(C)NC(=O)[C@@H]1C[C@@H]2CCCC[C@@H]2CN1C[C@@H](O)[C@H](Cc1ccccc1)NC(=O)[C@H](CC(N)=O)NC(=O)c1ccc2ccccc2n1
Second: CNCCCC12CCC(c3ccccc31)c1ccccc12 [MAPROTILINE]
The “LTKB_BD DILI severity score” value of the first is lower: 3 for the first, 5 for the second.

Compared with `Cn1cnc([N+](=O)[O-])c1Sc1ncnc2nc[nH]c12` [AZATHIOPRINE], `CN/C(=N/CCSCc1nc[nH]c1C)NC#N` [CIMETIDINE] is lower in “LTKB_BD DILI severity score” value: 3 for the first, 2 for the second.

`Clc1cccc(Cl)c1N=C1NCCN1` [CLONIDINE] and `CNCCCN1c2ccccc2CCc2ccccc21` [DESIPRAMINE] are the same in “LTKB_BD DILI severity score” value: 3 for the first, 3 for the second.

Going from `O=P1(N(CCCl)CCCl)NCCCO1` (configuration not stated) [CYCLOPHOSPHAMIDE ANHYDROUS] to `NC(N)=Nc1nc(CSCCC(N)=NS(N)(=O)=O)cs1` [FAMOTIDINE], the “LTKB_BD DILI severity score” value falls from 5 to 3.

`Cc1cccc(C)c1OCC(C)N` (configuration not stated) [MEXILETINE] and `COc1ccc2cc([C@H](C)C(=O)O)ccc2c1` [NAPROXEN] are the same in “LTKB_BD DILI severity score” value: 3 for the first, 3 for the second.

In the case of `O=C1NC(=O)C(c2ccccc2)(c2ccccc2)N1` [PHENYTOIN], the “LTKB_BD DILI severity score” value is reported as 3.
